According to patent EP0309120A2, “Atrial hypotensive peptide” (QUEEN'S UNIVERSITY AT KINGSTON, priority 1987, dated 1989):
Ends that are not written are not given here.

Tests used:
[1] = system: antiserum to iso-rANP(1-20) (P2A); test: Radioimmunoassay (RIA) with anti-P2A antiserum and 125I-P2A-Y tracer; format: binding, New Zealand white rabbits; details: antiserum used for the RIA
Excerpt: The procedure was repeated to produce the same 20 amino acid residue fragment with a tyrosine residue attached to the N-terminal serine. The 20-residue peptide (P2A) was mixed with Freund's complete adjuvant and injected subcutaneously into New Zealand white rabbits. After boosting at 5 weeks after the initial injection the rabbits were bled 1 week later. […] Tyrosinated P2A (P2A-Y) was iodinated using the chloramine T method and the iodinated tracer was purified by HPLC on a Waters µBondapak C₁₈ column. For radioimmunossay (RIA) the buffer contained 0.1M NaHPO₄ buffer, pH 7.4, 0.05M NaCl, 0.1% BSA and 0.02% […]. The RIA incubation mixture contained 3-100 pg of P2A in 100 µ l of buffer, 100 µl of diluted antiserum and 100 µl of ¹²⁵I-P2A-Y (approx. 8000 cpm). After incubation overnight at 4°C bound and free iodinated peptide were separated by second antibody precipitation using goat anti-rabbit - globulin. The sensitivity of the assay was 2-3 pg/tube with 50% displacement at 25-30 pg/tube.
The RIA was then used to monitor the purification of the peptide de novo from atrial extracts using gel-filtration and reverse-phase HPLC. The procedure used was essentially the same as the one briefly described above for the purification of ANP, except that the initial extraction and the gel-filtration stages were done in the presence of several protease inhibitors.

[2] = system: bioassay rats; test: Bolus injection into anesthetized bioassay rats: urinary and cardiovascular responses; format: in vivo, male Sprague-Dawley rats
Experimental: Experiments were performed using male Sprague-Dawley rats, ranging in weight from 270-362 g. The rats were anesthetized by an intraperitoneal injection of sodium pentobarbital (70 mg.kg-1; MTC Pharmaceuticals, Hamilton, Ont.). Additional small amounts of anesthetic were administered as required in the course of the experiment. […] After installing a tracheal cannula, a femoral vein was cannulated and a priming infusion of saline (0.9% NaCl) was administered over a 20 min period (1.1 ml); this was followed by a maintenance saline infusion of 1.2 ml.h-1. The femoral artery was then cannulated for blood pressure measurement (Statham pressure transducer, model P23Db). A catheter was also advanced via the right external jugular vein towards the right heart for bolus injections of vehicle, ANF or the atrial peptide of the present invention (AHP). After tying off the penis, the bladder was cannulated for urine collection. Rates were not used or experiments aborted if the urine became bloody. The EKG was recorded for determination of heart rate.
Urine was collected in preweighed vials and volume calculated by weighing. The time for sequential urine collections was 5 min or, increments of 4 min until there was enough urine volume for electrolyte determinations (0.25 ml or 16 drops). Rat kidneys were removed at the termination of the experiments so that urinary excretion measurements could be normalized for total kidney weight. Measurements of NA+ and K+ were obtained using ion specific electrodes and Cl- was obtained by coulometric titration.
Zero time was established by 40-60 mins from the beginning the priming saline infusion. The control measurements were carried out over 20 mins or, until there was sufficient urine collection for electrolyte determinations. A bolus injection of vehicle, rANP(99-126) or iso-rANP(1-46) or iso-rANP(17-46) was then administered into the jugular vein catheter and the catheter immediately cleared of remaining injectate by a secondary bolus of 0.2 ml saline. The rANP(99-126) was obtained from Armand-Frappier, Montreal. Cardiovascular measurements were analyzed at 5 min intervals during control and at 1, 5, 10, 15 and 20 mins following administration of injectate. […] Thus, residues 17-46 of the native peptide represent a functional, as well as structural, homologue of both ANP and BNP. Moreover, it would appear that residues 1-20 of iso-rANP(1-46) are not required for biological activity. […] It required twice the dose of iso-rANP(17-46) (1.5 nanomol) to produce equivalent average decreases in mean arterial blood pressure and heart rate as rANP(99-126) (0.7 nanomol). […] Variability of response of assay rats to injected peptides is evident from the rather larger variances (SEM).

[3] = system: Aortic rings (thoracic aortae); test: Vasorelaxant activity on phenylephrine-contracted aortic rings; set-up: species or system New Zealand White rabbits
Experimental: Aortic rings (3-4mm) were cut from the thoracic aortae of New Zealand White rabbits. The rings were suspended in a 10 ml tissue bath containing Kreb's Ringer Solution, pH 7.4 at 37°C. The rings were maintained at about 70% of maximal contraction with phenylephrine in doses ranging from 1 x 10⁻⁶ to 5 x 10⁻⁸M. Vasorelaxant activity or peptides was tested by adding various concentrations of peptide to the bath.

In the case of “ANP: atrial natriuretic peptide, length not specified at this place”, the cross-reaction with antiserum [1] is reported as “did not cross-react”.

For “MAHSSSCFGEKIDRIGAVSRLGCDILLIAQ (cysteine pairing not given here) [iso-rANP(17-46), chemically synthesized peptide corresponding to residues 17-46 of iso-rANP(1-46)]”, the “effect in increasing urinary volume as well as Na+, K+ and Cl- excretion” value ([2]; 3.0 nanomol, four-fold larger dose than rANP(99-126), compared with rANP(99-126)) was “somewhat lesser effect”, the “potency compared with rANP(99-126)” value ([2]; as shown in Table 1, result in words) was “somewhat less than rANP(99-126)” and the “dose to produce equivalent average decreases in mean arterial blood pressure and heart rate” value ([2]; bolus into jugular vein catheter) was 1.5 nmol. The urinary responses ([2]; dose 0.9 nmol) was “only a small effect in most rats”, the “additional effect on cardiovascular responses (mean arterial blood pressure, heart rate)” value ([2]; dose increased to 3.0 nanomol) was “no additional effect” and the “diuretic, natriuretic, hypotensive and bradycardic responses” value ([2]; injected into bioassay rats, result in words) was “elicited diuretic, natriuretic, hypotensive and bradycardic responses qualitatively similar to both the native peptide and rANP”. The “smooth muscle vaso-relaxant activity” value ([3]; rabbit aortic rings at about 70% of maximal contraction with phenylephrine, result in words) was “showed smooth muscle vaso-relaxant activity”, the “higher dose required to produce the same relaxation obtained by 50 ng of rANP(99-126)” value ([3]; rabbit aortic rings, relative to 50 ng of rANP(99-126)) was 20 fold and the “potency compared with ANP(99-126)” value ([3]; rabbit aortic rings, result in words) was “less potent”.
